Data reported in ChEMBL document CHEMBL3259654, “Dihydrothiophene-condensed chromones from a marine-derived fungus Penicillium oxalicum and their structure-bioactivity relationship” (Bioorg Med Chem Lett, 2014).

Experiments:
MOLT-4 = test: Cytotoxicity against human MOLT4 cells by MTT assay; format: functional, cell-based
[1] = Retention time of the compound by HPLC analysis; format: physicochemical
[2] = Cytotoxicity against human BGC823 cells by MTT assay; format: functional, cell-based; conditions: BGC-823
U-937 = test: Cytotoxicity against human U937 cells by MTT assay; format: functional, cell-based
NCI-H1975 = test: Cytotoxicity against human NCI-H1975 cells by MTT assay; format: functional, cell-based
MCF7 = test: Cytotoxicity against human MCF7 cells by MTT assay; format: functional, cell-based
K562 = test: Cytotoxicity against human K562 cells by MTT assay; format: functional, cell-based
[3] = Cytotoxicity against human HuH7 cells by MTT assay; format: functional, cell-based; conditions: Huh-7
HL-60 = test: Cytotoxicity against human HL60 cells by MTT assay; format: functional, cell-based

| SMILES | IC50 (MOLT-4) [µM] | Retention_time [1] [min] | IC50 [2] [µM] | IC50 (U-937) [µM] | IC50 (NCI-H1975) [µM] | IC50 (MCF7) [µM] | IC50 (K562) [µM] | IC50 [3] [µM] | IC50 (HL-60) [µM] |
| --- | --- | --- | --- | --- | --- | --- | --- | --- | --- |
| COC(=O)[C@@](O)(C[C@@H](O)C(=O)O)[C@@H]1Cc2c(oc3cc(C)cc(O)c3c2=O)S1 | 5.74 | 23.144 | 10.1 |  |  |  |  |  |  |
| COC(=O)C[C@](O)(C(=O)OC)[C@@H]1Cc2c(oc3cc(C)cc(O)c3c2=O)S1 | 1.36 |  | 1.96 | 4.16 | 5.45 | 4.32 | 8.8 | 6.33 | 2.96 |
| COC(=O)[C@H](O)C[C@](O)(C(=O)OC)[C@@H]1Cc2c(oc3cc(C)cc(O)c3c2=O)S1 | 0.3 | 24.796 | 4.89 | 2.35 | 10.4 | 11.3 | 4.53 | 9.49 | 2.55 |
| COC(=O)[C@H](O)C[C@](O)(C(=O)OC)[C@H]1Cc2c(oc3cc(C)cc(O)c3c2=O)S1 | 2.3 |  |  | 5 |  |  |  |  | 6.41 |
| COC(=O)[C@@H](C[C@](O)(C(=O)OC)[C@@H]1Cc2c(oc3cc(C)cc(O)c3c2=O)S1)OC(=O)[C@](OC)(c1ccccc1)C(F)(F)F | 5.89 |  | 8.82 | 9.85 |  |  |  |  |  |
| COC(=O)[C@@H](C[C@](O)(C(=O)OC)[C@@H]1Cc2c(oc3cc(C)cc(O)c3c2=O)S1)OC(=O)[C@@](OC)(c1ccccc1)C(F)(F)F | 4.81 |  | 5.53 | 9.04 |  |  | 1.34 |  | 7.54 |
| COC(=O)[C@@H](C[C@](O)(C(=O)OC)[C@@H]1Cc2c(oc3cc(C)cc(O)c3c2=O)S1)OC(=O)c1ccc([N+](=O)[O-])cc1 | 3.66 |  | 8.01 | 6.37 | 6.97 | 7.37 | 9.68 | 6 | 3.96 |
| COC(=O)[C@@H](C[C@](O)(C(=O)OC)[C@@H]1Cc2c(oc3cc(C)cc(OC(=O)c4ccc([N+](=O)[O-])cc4)c3c2=O)S1)OC(=O)c1ccc([N+](=O)[O-])cc1 | 2.96 |  | 4.49 | 6.34 |  | 6.05 | 1.04 | 8.77 | 3.09 |
| COC(=O)[C@@H](C[C@](O)(C(=O)OC)[C@@H]1Cc2c(oc3cc(C)cc(O)c3c2=O)S1)OC(=O)c1cc(C(F)(F)F)cc(C(F)(F)F)c1 | 3.02 |  | 3.95 | 4.06 | 2.33 | 6.94 | 6.9 |  | 3.79 |
| COC(=O)[C@@H](C[C@](OC(=O)c1cc(C(F)(F)F)cc(C(F)(F)F)c1)(C(=O)OC)[C@@H]1Cc2c(oc3cc(C)cc(OC(=O)c4cc(C(F)(F)F)cc(C(F)(F)F)c4)c3c2=O)S1)OC(=O)c1cc(C(F)(F)F)cc(C(F)(F)F)c1 |  |  |  | 7.2 |  |  |  |  |  |
| COC(=O)[C@@H](C[C@](O)(C(=O)OC)[C@@H]1Cc2c(oc3cc(C)cc(OC(=O)c4ccccc4)c3c2=O)S1)OC(=O)c1ccccc1 | 3.99 |  |  |  |  |  |  |  | 4.46 |
| COC(=O)[C@@H](C[C@](O)(C(=O)OC)[C@H]1Cc2c(oc3cc(C)cc(O)c3c2=O)S1)OC(=O)[C@@](OC)(c1ccccc1)C(F)(F)F | 6.03 |  | 8.81 |  |  |  |  |  | 9.14 |
